# Data from the NIST ThermoML archive (doi:10.1016/j.tca.2015.01.022).
# ± gives the expanded uncertainty stated by the source.
# Assay: molar heat capacity at constant pressure
# Conditions: 101.33 kPa, Glass, Small (less than 1 g) adiabatic calorimetry
structure (smiles),measurement,setting,value
CCOS(=O)(=O)[O-].CCn1cc[n+](C)c1 [1-ethyl-3-methylimidazolium ethyl sulfate],molar heat capacity at constant pressure,5 K,1.02 ± 0.04 J/K/mol
same,molar heat capacity at constant pressure,7.21 K,2.892 ± 0.072 J/K/mol
same,molar heat capacity at constant pressure,7.52 K,3.232 ± 0.078 J/K/mol
same,molar heat capacity at constant pressure,7.89 K,3.662 ± 0.086 J/K/mol
same,molar heat capacity at constant pressure,8.26 K,4.116 ± 0.093 J/K/mol
same,molar heat capacity at constant pressure,8.64 K,4.61 ± 0.1 J/K/mol
same,molar heat capacity at constant pressure,9.02 K,5.113 ± 0.11 J/K/mol
same,molar heat capacity at constant pressure,9.4 K,5.662 ± 0.12 J/K/mol
same,molar heat capacity at constant pressure,9.78 K,6.226 ± 0.13 J/K/mol
same,molar heat capacity at constant pressure,10 K,6.55 ± 0.14 J/K/mol
same,molar heat capacity at constant pressure,10.17 K,6.81 ± 0.14 J/K/mol
same,molar heat capacity at constant pressure,10.66 K,7.609 ± 0.15 J/K/mol
same,molar heat capacity at constant pressure,11.26 K,8.587 ± 0.16 J/K/mol
same,molar heat capacity at constant pressure,11.87 K,9.634 ± 0.17 J/K/mol
same,molar heat capacity at constant pressure,12.47 K,10.71 ± 0.18 J/K/mol
same,molar heat capacity at constant pressure,13.09 K,11.85 ± 0.19 J/K/mol
same,molar heat capacity at constant pressure,13.7 K,13.01 ± 0.2 J/K/mol
same,molar heat capacity at constant pressure,14.32 K,14.24 ± 0.21 J/K/mol
same,molar heat capacity at constant pressure,14.95 K,15.52 ± 0.22 J/K/mol
same,molar heat capacity at constant pressure,15 K,15.63 ± 0.23 J/K/mol
same,molar heat capacity at constant pressure,15.69 K,17.06 ± 0.23 J/K/mol
same,molar heat capacity at constant pressure,16.54 K,18.87 ± 0.24 J/K/mol
same,molar heat capacity at constant pressure,17.39 K,20.71 ± 0.25 J/K/mol
same,molar heat capacity at constant pressure,18.24 K,22.56 ± 0.25 J/K/mol
same,molar heat capacity at constant pressure,19.1 K,24.43 ± 0.26 J/K/mol
same,molar heat capacity at constant pressure,19.96 K,26.32 ± 0.26 J/K/mol
same,molar heat capacity at constant pressure,20 K,26.45 ± 0.27 J/K/mol
same,molar heat capacity at constant pressure,21.16 K,29.04 ± 0.28 J/K/mol
same,molar heat capacity at constant pressure,22.71 K,32.61 ± 0.3 J/K/mol
same,molar heat capacity at constant pressure,24.26 K,36.22 ± 0.31 J/K/mol
same,molar heat capacity at constant pressure,25 K,37.93 ± 0.32 J/K/mol
same,molar heat capacity at constant pressure,25.81 K,39.86 ± 0.33 J/K/mol
same,molar heat capacity at constant pressure,27.37 K,43.43 ± 0.34 J/K/mol
same,molar heat capacity at constant pressure,28.95 K,47.02 ± 0.35 J/K/mol
same,molar heat capacity at constant pressure,30 K,49.4 ± 0.32 J/K/mol
same,molar heat capacity at constant pressure,30.54 K,50.61 ± 0.32 J/K/mol
same,molar heat capacity at constant pressure,32.28 K,54.42 ± 0.34 J/K/mol
same,molar heat capacity at constant pressure,33.12 K,56.24 ± 0.35 J/K/mol
same,molar heat capacity at constant pressure,35 K,60.18 ± 0.37 J/K/mol
same,molar heat capacity at constant pressure,35.01 K,60.28 ± 0.37 J/K/mol
same,molar heat capacity at constant pressure,36.91 K,64.15 ± 0.39 J/K/mol
same,molar heat capacity at constant pressure,38.82 K,68 ± 0.41 J/K/mol
same,molar heat capacity at constant pressure,40 K,70.37 ± 0.43 J/K/mol
same,molar heat capacity at constant pressure,40.72 K,71.74 ± 0.43 J/K/mol
same,molar heat capacity at constant pressure,42.73 K,75.61 ± 0.45 J/K/mol
same,molar heat capacity at constant pressure,44.84 K,79.65 ± 0.48 J/K/mol
same,molar heat capacity at constant pressure,45 K,79.98 ± 0.48 J/K/mol
same,molar heat capacity at constant pressure,46.95 K,83.58 ± 0.5 J/K/mol
same,molar heat capacity at constant pressure,49.06 K,87.43 ± 0.52 J/K/mol
same,molar heat capacity at constant pressure,50 K,89 ± 0.53 J/K/mol
same,molar heat capacity at constant pressure,51.17 K,91.07 ± 0.54 J/K/mol
same,molar heat capacity at constant pressure,53.29 K,94.63 ± 0.55 J/K/mol
same,molar heat capacity at constant pressure,55.41 K,98.01 ± 0.57 J/K/mol
same,molar heat capacity at constant pressure,57.53 K,101.3 ± 0.6 J/K/mol
same,molar heat capacity at constant pressure,59.66 K,104.5 ± 0.6 J/K/mol
same,molar heat capacity at constant pressure,60 K,105.1 ± 0.6 J/K/mol
same,molar heat capacity at constant pressure,61.79 K,107.7 ± 0.6 J/K/mol
same,molar heat capacity at constant pressure,63.92 K,110.7 ± 0.6 J/K/mol
same,molar heat capacity at constant pressure,66.06 K,113.7 ± 0.7 J/K/mol
same,molar heat capacity at constant pressure,68.21 K,116.6 ± 0.7 J/K/mol
same,molar heat capacity at constant pressure,70 K,119 ± 0.7 J/K/mol
same,molar heat capacity at constant pressure,70.35 K,119.5 ± 0.7 J/K/mol
same,molar heat capacity at constant pressure,72.59 K,122.4 ± 0.7 J/K/mol
same,molar heat capacity at constant pressure,74.94 K,125.3 ± 0.7 J/K/mol
same,molar heat capacity at constant pressure,77.3 K,128.3 ± 0.7 J/K/mol
same,molar heat capacity at constant pressure,79.66 K,131.2 ± 0.8 J/K/mol
same,molar heat capacity at constant pressure,80 K,131.5 ± 0.7 J/K/mol
same,molar heat capacity at constant pressure,80.4 K,132.1 ± 0.8 J/K/mol
same,molar heat capacity at constant pressure,82.02 K,133.9 ± 0.8 J/K/mol
same,molar heat capacity at constant pressure,82.22 K,134.2 ± 0.8 J/K/mol
same,molar heat capacity at constant pressure,84.05 K,136.2 ± 0.8 J/K/mol
same,molar heat capacity at constant pressure,84.39 K,136.7 ± 0.8 J/K/mol
same,molar heat capacity at constant pressure,85.88 K,138.3 ± 0.8 J/K/mol
same,molar heat capacity at constant pressure,87.71 K,140.4 ± 0.8 J/K/mol
same,molar heat capacity at constant pressure,89.54 K,142.4 ± 0.8 J/K/mol
same,molar heat capacity at constant pressure,90 K,143 ± 0.8 J/K/mol
same,molar heat capacity at constant pressure,91.38 K,144.4 ± 0.8 J/K/mol
same,molar heat capacity at constant pressure,93.22 K,146.5 ± 0.8 J/K/mol
same,molar heat capacity at constant pressure,95.06 K,148.5 ± 0.8 J/K/mol
same,molar heat capacity at constant pressure,96.91 K,150.4 ± 0.8 J/K/mol
same,molar heat capacity at constant pressure,98.76 K,152.4 ± 0.8 J/K/mol
same,molar heat capacity at constant pressure,100 K,153.7 ± 0.8 J/K/mol
same,molar heat capacity at constant pressure,100.61 K,154.3 ± 0.8 J/K/mol
same,molar heat capacity at constant pressure,102.46 K,156.2 ± 0.9 J/K/mol
same,molar heat capacity at constant pressure,104.31 K,158 ± 0.9 J/K/mol
same,molar heat capacity at constant pressure,106.16 K,159.9 ± 0.9 J/K/mol
same,molar heat capacity at constant pressure,108.05 K,161.9 ± 0.9 J/K/mol
same,molar heat capacity at constant pressure,109.91 K,163.7 ± 0.9 J/K/mol
same,molar heat capacity at constant pressure,110 K,163.7 ± 0.9 J/K/mol
same,molar heat capacity at constant pressure,111.77 K,165.5 ± 0.9 J/K/mol
same,molar heat capacity at constant pressure,113.63 K,167.3 ± 0.9 J/K/mol
same,molar heat capacity at constant pressure,115.49 K,169.2 ± 0.9 J/K/mol
same,molar heat capacity at constant pressure,117.36 K,171 ± 0.9 J/K/mol
same,molar heat capacity at constant pressure,119.23 K,172.8 ± 0.9 J/K/mol
same,molar heat capacity at constant pressure,120 K,173.5 ± 0.9 J/K/mol
same,molar heat capacity at constant pressure,121.1 K,174.6 ± 0.9 J/K/mol
same,molar heat capacity at constant pressure,122.98 K,176.4 ± 1 J/K/mol
same,molar heat capacity at constant pressure,124.42 K,177.8 ± 1 J/K/mol
same,molar heat capacity at constant pressure,124.85 K,178.2 ± 1 J/K/mol
same,molar heat capacity at constant pressure,126.41 K,179.7 ± 1 J/K/mol
same,molar heat capacity at constant pressure,126.73 K,180 ± 1 J/K/mol
same,molar heat capacity at constant pressure,128.28 K,181.4 ± 1 J/K/mol
same,molar heat capacity at constant pressure,128.61 K,181.8 ± 1 J/K/mol
same,molar heat capacity at constant pressure,130 K,183.1 ± 1 J/K/mol
same,molar heat capacity at constant pressure,130.16 K,183.3 ± 1 J/K/mol
same,molar heat capacity at constant pressure,130.5 K,183.6 ± 1 J/K/mol
same,molar heat capacity at constant pressure,132.03 K,185.1 ± 1 J/K/mol
same,molar heat capacity at constant pressure,132.38 K,185.4 ± 1 J/K/mol
same,molar heat capacity at constant pressure,133.91 K,186.9 ± 1 J/K/mol
same,molar heat capacity at constant pressure,134.27 K,187.2 ± 1 J/K/mol
same,molar heat capacity at constant pressure,135.79 K,188.7 ± 1 J/K/mol
same,molar heat capacity at constant pressure,136.16 K,189.1 ± 1 J/K/mol
same,molar heat capacity at constant pressure,137.67 K,190.6 ± 1 J/K/mol
same,molar heat capacity at constant pressure,138.05 K,190.9 ± 1 J/K/mol
same,molar heat capacity at constant pressure,139.55 K,192.4 ± 1 J/K/mol
same,molar heat capacity at constant pressure,139.95 K,192.7 ± 1 J/K/mol
same,molar heat capacity at constant pressure,140 K,192.8 ± 1.1 J/K/mol
same,molar heat capacity at constant pressure,141.43 K,194.2 ± 1 J/K/mol
same,molar heat capacity at constant pressure,141.84 K,194.5 ± 1 J/K/mol
same,molar heat capacity at constant pressure,143.31 K,196 ± 1 J/K/mol
same,molar heat capacity at constant pressure,143.74 K,196.4 ± 1.1 J/K/mol
same,molar heat capacity at constant pressure,145.19 K,197.9 ± 1.1 J/K/mol
same,molar heat capacity at constant pressure,145.64 K,198.2 ± 1.1 J/K/mol
same,molar heat capacity at constant pressure,147.07 K,199.7 ± 1.1 J/K/mol
same,molar heat capacity at constant pressure,147.53 K,200.1 ± 1.1 J/K/mol
same,molar heat capacity at constant pressure,148.95 K,201.6 ± 1.1 J/K/mol
same,molar heat capacity at constant pressure,149.43 K,202 ± 1.1 J/K/mol
same,molar heat capacity at constant pressure,150 K,202.6 ± 1.1 J/K/mol
same,molar heat capacity at constant pressure,150.83 K,203.5 ± 1.1 J/K/mol
same,molar heat capacity at constant pressure,151.33 K,203.9 ± 1.1 J/K/mol
same,molar heat capacity at constant pressure,152.71 K,205.3 ± 1.1 J/K/mol
same,molar heat capacity at constant pressure,153.23 K,205.8 ± 1.1 J/K/mol
same,molar heat capacity at constant pressure,154.59 K,207.2 ± 1.1 J/K/mol
same,molar heat capacity at constant pressure,155.13 K,207.8 ± 1.1 J/K/mol
same,molar heat capacity at constant pressure,155.16 K,207.7 ± 1.1 J/K/mol
same,molar heat capacity at constant pressure,156.47 K,209.1 ± 1.1 J/K/mol
same,molar heat capacity at constant pressure,157.04 K,209.7 ± 1.1 J/K/mol
same,molar heat capacity at constant pressure,157.27 K,209.9 ± 1.1 J/K/mol
same,molar heat capacity at constant pressure,158.34 K,211.1 ± 1.1 J/K/mol
same,molar heat capacity at constant pressure,158.94 K,211.7 ± 1.1 J/K/mol
same,molar heat capacity at constant pressure,159.27 K,212 ± 1.1 J/K/mol
same,molar heat capacity at constant pressure,160 K,212.7 ± 1.2 J/K/mol
same,molar heat capacity at constant pressure,160.22 K,213.1 ± 1.1 J/K/mol
same,molar heat capacity at constant pressure,160.84 K,213.8 ± 1.1 J/K/mol
same,molar heat capacity at constant pressure,161.27 K,214.3 ± 1.1 J/K/mol
same,molar heat capacity at constant pressure,162.09 K,215 ± 1.1 J/K/mol
same,molar heat capacity at constant pressure,162.75 K,215.8 ± 1.1 J/K/mol
same,molar heat capacity at constant pressure,163.26 K,216.4 ± 1.1 J/K/mol
same,molar heat capacity at constant pressure,163.96 K,217.2 ± 1.2 J/K/mol
same,molar heat capacity at constant pressure,164.67 K,217.8 ± 1.2 J/K/mol
same,molar heat capacity at constant pressure,165.26 K,218.6 ± 1.2 J/K/mol
same,molar heat capacity at constant pressure,165.83 K,219.3 ± 1.2 J/K/mol
same,molar heat capacity at constant pressure,166.58 K,220.1 ± 1.2 J/K/mol
same,molar heat capacity at constant pressure,167.25 K,221 ± 1.2 J/K/mol
same,molar heat capacity at constant pressure,167.7 K,221.5 ± 1.2 J/K/mol
same,molar heat capacity at constant pressure,168.51 K,222.3 ± 1.2 J/K/mol
same,molar heat capacity at constant pressure,169.24 K,223.4 ± 1.2 J/K/mol
same,molar heat capacity at constant pressure,169.57 K,223.8 ± 1.2 J/K/mol
same,molar heat capacity at constant pressure,170 K,224.3 ± 1.2 J/K/mol
same,molar heat capacity at constant pressure,170.43 K,224.8 ± 1.2 J/K/mol
same,molar heat capacity at constant pressure,171.36 K,226.2 ± 1.2 J/K/mol
same,molar heat capacity at constant pressure,171.44 K,226.5 ± 1.2 J/K/mol
same,molar heat capacity at constant pressure,172.36 K,227.7 ± 1.2 J/K/mol
same,molar heat capacity at constant pressure,173.31 K,229.1 ± 1.2 J/K/mol
same,molar heat capacity at constant pressure,173.44 K,229.3 ± 1.2 J/K/mol
same,molar heat capacity at constant pressure,174.29 K,230.5 ± 1.2 J/K/mol
same,molar heat capacity at constant pressure,175.18 K,232 ± 1.2 J/K/mol
same,molar heat capacity at constant pressure,175.43 K,232.4 ± 1.2 J/K/mol
same,molar heat capacity at constant pressure,176.22 K,233.7 ± 1.2 J/K/mol
same,molar heat capacity at constant pressure,177.04 K,235.4 ± 1.2 J/K/mol
same,molar heat capacity at constant pressure,177.41 K,236.3 ± 1.2 J/K/mol
same,molar heat capacity at constant pressure,178.16 K,237.7 ± 1.3 J/K/mol
same,molar heat capacity at constant pressure,178.9 K,239.4 ± 1.3 J/K/mol
same,molar heat capacity at constant pressure,179.39 K,240.8 ± 1.3 J/K/mol
same,molar heat capacity at constant pressure,180 K,242.6 ± 1.3 J/K/mol
same,molar heat capacity at constant pressure,180.1 K,242.9 ± 1.3 J/K/mol
